{"source": "patent US12185726B2", "about": "“Method for efficiently collecting and purifying Orobanche cumana (O. cumana) germination stimulants using aeroponic system and solid-phase extraction (SPE)” (ZHEJIANG UNIVERSITY, priority 2019, dated 2025)", "key": {"O. cumana": {"test_system": "O. cumana", "test": "Biological activities of the four O. cumana germination stimulants detected in stimulants collected under the aeroponic system (UHPLC-TQ-MS detection)", "design": "species or system Orobanche cumana", "details": "collected sunflower root exudate stimulants", "description": "7) The ultra-high performance liquid chromatograph-triple quadrupole mass spectrometry (UHPLC-TQ-MS) was adopted to separate and detect the components of obtained O. cumana germination stimulants. The O. cumana germination stimulants in sunflower root exudates were identified using ultra-high performance liquid chromatography-mass spectrometry (UHPLC-MS/MS), and analyzed using Micromass Quattro Premier XE tandem mass spectrometer (Waters, USA). The mass spectrometer was equipped with an electrospray ionization source (ESI) and combined with a UHPLC system. Chromatographic conditions: UHPLC C18 column (100 mm×2.1 mm, 1.7 μm), and mobile phase: water-methanol. Gradient elution process: 30% methanol for 1 min; 5 min of transition to 80% methanol, and holding at 80% methanol for 1 min; and 0.2 min of transition back to 30% methanol. The column was equilibrated in this solvent composition for 1.8 min before proceeding to the next run. Each run: 9 min; column temperature: 50° C.; flow rate: 0.4 mL/min; and injection volume: 30 μl. MS conditions: ESI, in positive ion scanning mode; gas flow rates of atomizer and desolventizing: 50|h^−1 and 800|h^−1, respectively; capillary voltage: 2.7 kV; extraction cone voltage: 20 V, source temperature: 120° C.; and desolventizing gas temperature: 450° C. 3.0×10^−3 mbar argon was used for collision to induce dissociation and fragmentation. The collision energy for each compound was optimized. Multiple response monitoring (MRM) scanning mode was adopted to search for O. cumana germination stimulants. Mass-to-charge ratio scan range data can be found in (Raupp & Spring 2013; Ueno et al. 2014). In this experiment, based on previous literature data, four types of O. cumana germination stimulants were selected for detection. Three are biologically-active sesquiterpenes isolated from O. cumana germination stimulants, namely, dehydrocostus lactone, costunolide, and 8-epixanthatin, and the remaining one is a non-sesquiterpene, namely, heliolactone."}, "O. cumana seeds": {"test_system": "O. cumana seeds", "details": "at nanomolar and micromolar concentrations; sunflower root exudates; cited from earlier work"}}, "data": [{"molecule": "C=C1C(=O)O[C@@H]2C[C@H](C)C(/C=C/C(C)=O)=CC[C@H]12", "note": "[8-epixanthatin]", "values": [{"measurement": "biological activity as O. cumana germination stimulant", "setting": "O. cumana", "value": "high activities"}, {"measurement": "stimulation of the germination of O. cumana seeds", "setting": "O. cumana seeds", "value": "can stimulate the germination"}]}, {"molecule": "C=C1C(=O)O[C@@H]2/C=C(\\C)CC/C=C(\\C)CC[C@@H]12", "note": "[costunolide]", "values": [{"measurement": "biological activity as O. cumana germination stimulant", "setting": "O. cumana", "value": "high activities"}, {"measurement": "stimulation of the germination of O. cumana seeds", "setting": "O. cumana seeds", "value": "can stimulate the germination"}]}, {"molecule": "C=C1CC[C@H]2C(=C)CC[C@H]3C(=C)C(=O)O[C@@H]3[C@@H]12", "note": "[dehydrocostus lactone]", "values": [{"measurement": "biological activity as O. cumana germination stimulant", "setting": "O. cumana", "value": "high activities"}]}, {"molecule": "C=C1C(=O)O[C@@H]2C[C@H](C)C(CCC(C)=O)=CC[C@H]12", "note": "[tomentosin]", "values": [{"measurement": "stimulation of the germination of O. cumana seeds", "setting": "O. cumana seeds", "value": "can stimulate the germination"}]}, {"molecule": "heliolactone", "values": [{"measurement": "biological activity as O. cumana germination stimulant", "setting": "O. cumana", "value": "very low activity"}]}]}
